Assay results: US20230139328A1, “DOSAGE FORMS FOR IMPROVING ORGAN TRANSPLANTATION, GRAFT VERSUS HOST DISEASE AND STEM CELLS TRANSPLANTS” (Aphios Corporation, priority 2020, published 2023)
Entries after “also recorded” stand apart in the source; their conditions may differ.

Tests used:
Type in all cases: cell-based, human
HMEC = experiment: Alamar blue endothelial viability assay, HMEC; conditions: single 1 h 100 nM treatment; 1, 24, 48 h
Description: (§1) Viability Assay. The Alamar blue assay was used to determine endothelial viability after pharmacological intervention. Alamar blue contains a REDOX indicator that results in a color change upon chemical reduction by cellular metabolic activity. Endothelial cells were treated with Bryostatin-1 (100 nM) for 1 h and washed three times with HBSS. Alamar blue (10%) in media was added for 2.5 h at T=0, 24, or 48 hours after drug treatment and the ratio of absorbances (570-600 nm) was measured to determine metabolic activity.

HUVEC = experiment: Alamar blue endothelial viability assay, HUVEC; conditions: for HUVEC viability at 48 h: 48 h after a single 1 h 100 nM treatment; for HUVEC viability at 1 and 24 h: single 1 h 100 nM treatment, 1, 24 h
Description: as §1

[1] = test system: neutrophil adhesion to the endothelial monolayer; experiment: LTB4 induced neutrophil adhesion to the endothelial monolayer; conditions: data not shown
Description: Turning now to FIG. 1, FIG. 1 graphically depicts neutrophil adhesion to and migration through human microvascular endothelial cell monolayers (HMECs) in a two-compartment system upon administration of an LTB4 gradient in the lower chamber over time. HMECs were plated on porous 8 μm (micron) transwell two-chamber inserts and allowed to reach confluency for migration assays. For the adhesion assay, HMECs were plated on 48-well plates. 100 nM LTB4 and 500,000 neutrophils were added to the upper compartment to initiate adhesion, while 500,000 neutrophils were added to the upper compartment and LTB4 to the lower compartment to initiate migration. Both neutrophil adhesion and migration were measured over 3 h and expressed as % change in adhesion and the fraction of migrated cells in chemoattractant stimulated experiments vs. controls which had no chemoattractant added. […]
Confluent HMEC monolayers were plated on 48-well plates for adhesion studies, transwells for migration studies, and pretreated with a variety of pharmacological inhibitors and activators for 1 hour. […] For adhesion assays, LTB4 was added along with 500,000 neutrophils and allowed to adhere for 1 h (time of max, adhesion as determined in FIG. 1). […] The data are shown as % change in migration and adhesion as assessed by MPO assay. All values are expressed as means+SE. […]

[2] = test system: neutrophil migration across confluent HMECs; experiment: LTB4 induced neutrophil migration across HMEC monolayers (transwell, MPO assay); conditions: for effect on LTB4 induced neutrophil migration at 1 nM / effect on LTB4 induced neutrophil TEM at higher doses (100 nM): 1 h pretreatment, 100 nM LTB4; for effect on LTB4 induced neutrophil migration (dose response): 1 h pretreatment at 1-100 nM, 100 nM LTB4, 3 h migration
Description: FIG. 6 graphically depicts protection against LTB4 induced PMN TEM with PMA up to 48 h after pretreatment. HMECs were pretreated for 1 h with PMA and washed with HBSS three times to remove PMA prior to replacement of culture medium. Neutrophil migration studies were then performed at 0, 24, or 48 hours. Migration was stimulated by adding 500,000 neutrophils to the top well and 100 nM LTB4 to the lower well at 0, 24, and 48 hours after PMA pretreatment. […] PMA (100 nM, (10^−7M) reduced LTB4 induced migration up to 48 hours after 1 h of endothelial-specific pretreatment (***p<0.001).
Referring now to FIG. 7, FIG. 7 graphically depicts protection from LTB4 induced PMN TEM with Bryostatin-1 up to 48 hours after pretreatment. HMECs were pretreated for 1 h with Bryostatin-1 and washed with HBSS three times to remove Bryostatin-1 prior to replacement of culture medium. Neutrophil migration studies were then performed at 0, 24, or 48 hours. Migration was stimulated by adding 500,000 neutrophils to the top well and 100 nM LTB4 to the lower well at 0, 24, and 48 hours after Bryostatin-1 pretreatment. […] Bryostatin-1 (100 nM) reduced LTB4 induced migration up to 48 hours after 1-hour endothelial pretreatment (***p<0.001).
Cell Culture: HMECs were a generous gift from Dr. Francisco Candal (Centers for Disease Control), and are derived from the subcutaneous microvasculature. HMECs were maintained in MCDB-131 supplemented with 10% FCS, 1% antibiotic antimycotic, 10 ng/ml EGF, and […] hydrocortisone. The cell cultures were incubated at 37° C. in a humidified atmosphere with 7.5% CO2 and expanded by brief trypsinization (0.25% trypsin in phosphate-buffered saline containing 0.02% EDTA). HMECs were seeded onto 8 μm inserts for migration assays and 48-well plates for endothelial viability studies. Human umbilical vein endothelial cells (HUVECs) were harvested from umbilical cords by 0.25% collagenase treatment for 20 min at 37° C. HUVECs were maintained in Endothelial Growth Medium (EGM) supplemented with Bovine Brain Extract. The cell cultures were incubated at 37° C. in a 100% humidified atmosphere with 5% C02 and expanded by brief trypsinization. Primary passage HUVEC were seeded onto fibronectin coated (25 μg/ml)8 μm inserts for migration assays and 48-well plates for endothelial viability studies. Culture medium was replaced every second day. Cells were identified as endothelial cells by their cobblestone appearance at confluency, positive labeling with acetylated low density lipoprotein labeled with 1,11-dioctadecyl-1 3,3,31,31,3-tetramethylindocarbocyanine perchlorate (Dil-Ac-LDL; Biomedical Technologies, Inc.) and mouse antihuman factor […] (Calbiochem, San Diego, Calif.).
Neutrophil Isolation: Neutrophils were isolated using a Ficoll gradient. Whole blood was taken from human donors, and 5 ml was layered on top of two layers of Histopaque. Tubes were spun at 2,100 rpm for 40 min. The neutrophil layer was added to cold PBS and re-spun at 2,100 rpm for 5 min. Supernatant was removed and neutrophils were suspended in a fixed amount of PBS to determine cell count. Cells were kept on ice until assays were performed.
[…] Inserts were washed three times with Hank's Balanced Salt Solution (HBSS) (to eliminate drug effects on the neutrophils) and placed in a new plate containing either 500 μL 100 nM LTB4, or HBSS alone for control. 500 μL HBSS was then added to the top well and spiked with 500,000 neutrophils. For TNF-α experiments, HMECs were left in 20 ng/ml TNF-α in MCDB-131 for 24 h TNF-α was removed and HMECs washed three times. […] The drug was removed, and cells were washed three times. 500 μL HBSS was added to both upper and lower chambers and spiked with 500,000 neutrophils. Neutrophils were allowed to migrate for 3 h at 37° C. Migration was stopped by removing the inserts and migration was measured using the myeloperoxidase (MPO) assay.
Myeloperoxidase Assay: Neutrophil migration was measured using myeloperoxidase (MPO) analysis. […]

Compound | HMEC viability (HMEC) | HUVEC viability at 48 h (HUVEC) | HUVEC viability at 1 and 24 h (HUVEC) | effect on LTB4 induced adhesion to the endothelial monolayer [1] | effect on LTB4 induced neutrophil migration at 1 nM [2] | effect on LTB4 induced neutrophil TEM at higher doses (100 nM) [2] | effect on LTB4 induced neutrophil migration (dose response) [2] | time after pretreatment for which reduction of LTB4 induced migration is maintained, HMECs ([2]; single 1 h 100 nM pretreatment, washed, tested at 0, 24, 48 h) [h]
CCC/C=C/C=C/C(=O)O[C@H]1/C(=C/C(=O)OC)C[C@H]2C[C@H]([C@@H](C)O)OC(=O)C[C@H](O)C[C@@H]3C[C@H](OC(C)=O)C(C)(C)[C@](O)(C[C@@H]4C/C(=C/C(=O)OC)C[C@H](/C=C/C(C)(C)[C@]1(O)O2)O4)O3 [Bryostatin-1] | no effect | no effect | no effect | Neither PMA, nor Bryostatin-1 reduced LTB4 induced adhesion | did not reduce PMN TEM | attenuated neutrophil TEM to levels below that of basal migration | dose-dependently reduced; also recorded: reduced LTB4 induced migration in a dose dependent manner | 48
CCCCCCCCCCCCCC(=O)O[C@@H]1[C@@H](C)[C@@]2(O)[C@@H](C=C(CO)C[C@]3(O)C(=O)C(C)=C[C@@H]23)[C@@H]2C(C)(C)[C@]12OC(C)=O [PMA, phorbol myristate acetate] | no effect | slight but significant reduction in viability | no effect | Neither PMA, nor Bryostatin-1 reduced LTB4 induced adhesion | did not reduce PMN TEM; also recorded: had no effect | attenuated neutrophil TEM to levels below that of basal migration | dose-dependently reduced; also recorded: reduced LTB4 induced migration in a dose dependent manner | –
